Assay results from patent publication EP4559922A1, “ANTIHISTAMINE COMPOUND, PREPARATION METHOD THEREFOR AND USE THEREOF” (HC Synthetic Pharmaceutical Co., Ltd., priority 2022, dated 2024).
≈ marks a conversion by molar mass, not a printed value.

Assays:
histamine = assay: Antagonism of histamine-induced contraction of isolated ileal smooth muscle of guinea pigs; conditions: x±s, n = 8; for Smooth muscle tone After administration: 3 minutes after adding 0.05 mL compound following histamine; for Smooth muscle tone After addition of histamine: after 0.05 mL histamine, before compound; for Smooth muscle tone Before administration: baseline before histamine
Procedure: (§1) The guinea pig was knocked unconscious with a wooden stick, and the abdomen was immediately dissected to separate the ileum about 15 cm in length. The contents of the intestinal segment were flushed with Tyrode's solution and placed in Tyrode's solution at a constant temperature of 37°C for later use, and oxygen was supplied simultaneously. The experimental intestinal tract (1 cm in length) was cut and placed into 20 ml of Tyrode's solution at a constant temperature of 37°C with a continuous oxygen supply. One end of the intestine was fixed on the ventilation hook and the other end was connected to the muscle tone transducer and led to the computer interface. The muscle tone value of the ileal smooth muscle was recorded with a BL system. The experiment was carried out after the intestinal segment contraction became stable.
(§2) After the ileal peristalsis curve stabilized, the tone values before adding the compound were recorded, and then 0.05 mL of histamine was added. […] The operation was repeated 8 times. The antispasmodic percentage was calculated using the following equation. Antispasmodic percentage =; (Tone value after adding histamine−Tone value after adding subject compound)/(Tone value after adding histamine) × 100% [formula]

[1] = as above; conditions: relative to tone after adding histamine; x±s, n = 8; 3 min
Procedure: as §1, §2

[2] = tested on: isolated ileal smooth muscle of guinea pigs; assay: Effect on muscle tone of isolated ileal smooth muscle of guinea pigs (no histamine added); conditions: X±s; for Smooth muscle tone After administration: 5 minutes after adding drug; for Smooth muscle tone After administration / Smooth muscle tone Before administration: n = 8; for Antispasmodic percentage: relative to tone before adding compound, n = 8, 5 min; for Smooth muscle tone Before administration: baseline
Procedure: as §1
After the ileum contraction curve stabilized, the tone values before adding the drug were recorded, then the drug or DMSO was added, and the average tone value of the ileum contraction curve at that point was recorded 5 minutes later. The operation was repeated 8 times. The antispasmodic percentage was calculated according to the following formula. Antispasmodic percentage =; (Tone value before adding subject compound−Tone value after adding subject compound)/(Tone value before adding subject compound); × 100% [formula]

[3] = tested on: histamine-induced asthma in guinea pigs; assay: Antiasthmatic effect on histamine-induced asthma in guinea pigs (latency period); format: in vivo; conditions: X±s, n = 5; for Post-administration latency period: 1 mg/kg oral gavage, sixty minutes after administration, histamine hydrochloride spray, capped at 8 minutes; for Pre-administration latency period: baseline before administration, histamine hydrochloride 0.8 mg/mL sprayed 40 seconds
Procedure: The guinea pigs were placed in a polymethyl methacrylate bell jar and a histamine hydrochloride solution was sprayed ultrasonically (0.8 mg/mL) for 40 seconds. The time point at which the guinea pigs developed asthma was recorded. The time of convulsion and fall was taken as the latency period. Guinea pigs with a latency period exceeding 180 seconds were not selected. […] The guinea pigs were administered by oral gavage at a dose of 2 mL/kg·bw. Sixty minutes after the administration, the guinea pigs were placed in bell jars, and histamine hydrochloride solution was sprayed under the same conditions as in the previous selection. The latency period for the onset of asthma was recorded. […] The results were processed statistically.

[4] = Solubility of the compounds in water, methanol and isopropanol; format: physicochemical; conditions: for Solubility in Isopropanol: solvent isopropanol; for Solubility in Methanol: solvent methanol; for Solubility in Water: solvent water
Procedure: The solubility in water, methanol, and isopropanol of the compounds of the present disclosure and the comparative compounds were measured separately.

[5] = Accelerated stability test; format: physicochemical; conditions: 40°C ± 2°C, relative humidity 75% ± 5%

Solubility in Isopropanol [4] [mg/mL] | Solubility in Methanol [4] [mg/mL] | Solubility in Water [4] | Compound | Smooth muscle tone After administration (histamine) [g] | Antispasmodic percentage [1] [%] | Smooth muscle tone After administration [2] [g] | Antispasmodic percentage [2] [%] | Post-administration latency period [3] [s] | Smooth muscle tone After addition of histamine (histamine) [g] | Smooth muscle tone Before administration (histamine) [g] | Smooth muscle tone Before administration [2] [g] | Antispasmodic percentage ([2]; 5 min) [%] | Pre-administration latency period [3] [s] | also measured
21 (≈ 59.2 mM) | 27 (≈ 76.1 mM) | Practically insoluble | OCCN1CCC(=C2c3ccc(Cl)cc3CCc3cccnc32)CC1 [Hydroxyethyl desloratadine, reference compound] | 1.41 ± 0.43 | 58.53±10.79 | 1.33 ± 0.27 | 21.76±10.04 | 281.12 ± 54.82 |  |  |  |  |  | 
 |  | 20 mg/mL (≈ 44.7 mM) | O=C1Cc2ccccc2C(=C2CCN(CCCCOP(=O)(O)O)CC2)c2ccsc21 [Compound III-4] | 1.23 ± 0.24 | 64.24±17.11 | 1.16 ± 0.23 |  | 369.49 ± 51.06 | 3.44 ± 0.96 | 1.78 ± 0.17 | 1.72 ± 0.16 | 32.55±18.33 | 99.07 ± 50.25 | 
26 (≈ 70.5 mM) | 24 (≈ 65.1 mM) | Practically insoluble | OCCCN1CCC(=C2c3ccc(Cl)cc3CCc3cccnc32)CC1 [Hydroxypropyl desloratadine, reference compound] | 1.46 ± 0.49 | 57.05±12.07 | 1.30 ± 0.24 | 23.97±11.12 | 285.28 ± 56.32 |  |  |  |  |  | 
 |  | Practically insoluble | Cc1cncc(CN2CCC(=C3c4ccccc4CC(=O)c4sccc43)CC2)c1 [Rupatifen, reference compound] | 1.52 ± 0.46 | 55.42±11.38 | 1.31 ± 0.25 | 23.84±11.10 | 253.23 ± 52.29 |  |  |  |  |  | 
 |  | 20 mg/mL (≈ 43.3 mM) | O=C1Cc2ccccc2C(=C2CCN(CCCCCOP(=O)(O)O)CC2)c2ccsc21 [Compound III-5] | 1.20 ± 0.21 | 65.01±18.17 | 1.13 ± 0.31 |  | 375.52 ± 49.26 | 3.43 ± 0.93 | 1.73 ± 0.21 | 1.70 ± 0.20 | 33.53±19.21 | 102.32 ± 54.23 | 
 |  | 20 mg/mL (≈ 49.3 mM) | O=C1Cc2ccccc2C(=C2CCN(COP(=O)(O)O)CC2)c2ccsc21 [Compound III-1] | 1.14 ± 0.23 | 66.76±16.11 | 1.18 ± 0.25 |  | 376.25 ± 51.77 | 3.43 ± 1.06 | 1.79 ± 0.21 | 1.70 ± 0.17 | 30.59±18.11 | 98.57 ± 49.10 | 
 |  | 20 mg/mL (≈ 43.2 mM) | O=C1Cc2ccccc2C(=C2CCN(CCCOCOP(=O)(O)O)CC2)c2ccsc21 [Compound III-7] | 1.16 ± 0.22 | 66.28±16.16 | 1.20 ± 0.25 |  | 377.23 ± 50.23 |  |  |  | 30.23±19.04 |  | Content ([5]; Month 0): 99.7%; Description ([5]; Month 0): White powder; Related substances ([5]; Month 0): 0.03%; Description ([5]; Month 1): White powder; Related substances ([5]; Month 1): 0.05%; Description ([5]; Month 2): White powder; Related substances ([5]; Month 2): 0.10%; Description ([5]; Month 3): White powder; Related substances ([5]; Month 3): 0.15%; Description ([5]; Month 6): White powder; Related substances ([5]; Month 6): 0.34%; remaining at 730 h ([5]; storage 75% relative humidity, Month 1, read-out: Content): 99.7%; remaining at 1460 h ([5]; storage 75% relative humidity, Month 2, read-out: Content): 99.6%; remaining at 2190 h ([5]; storage 75% relative humidity, Month 3, read-out: Content): 99.5%; remaining at 4380 h ([5]; storage 75% relative humidity, Month 6, read-out: Content): 99.2%
 |  | 20 mg/mL (≈ 41.9 mM) | O=C1Cc2ccccc2C(=C2CCN(CCCCOCOP(=O)(O)O)CC2)c2ccsc21 [Compound III-8] | 1.12 ± 0.21 | 66.47±18.83 | 1.16 ± 0.21 |  | 376.24 ± 50.42 | 3.42 ± 0.99 | 1.78 ± 0.20 | 1.70 ± 0.29 | 31.76±18.69 | 99.49 ± 51.11 | 
 |  | 20 mg/mL (≈ 40.7 mM) | O=C1Cc2ccccc2C(=C2CCN(CCCCCOCOP(=O)(O)O)CC2)c2ccsc21 [Compound III-9] | 1.17 ± 0.24 | 67.25±17.74 | 1.12 ± 0.29 |  | 267.95 ± 51.16 |  |  |  | 34.50±19.89 |  | 
32 (≈ 77.9 mM) | 15 (≈ 36.5 mM) | Practically insoluble | OCCCCCCN1CCC(=C2c3ccc(Cl)cc3CCc3cccnc32)CC1 [Hydroxyhexyl desloratadine, reference compound] | 1.43 ± 0.47 | 58.06±13.39 | 1.30 ± 0.30 | 24.42±11.13 | 281.18 ± 53.76 |  |  |  |  |  | 
29 (≈ 73.1 mM) | 19 (≈ 47.9 mM) | Practically insoluble | OCCCCCN1CCC(=C2c3ccc(Cl)cc3CCc3cccnc32)CC1 [Hydroxypentyl desloratadine, reference compound] | 1.44 ± 0.51 | 57.48±12.05 | 1.28 ± 0.24 | 25.14±12.21 | 284.29 ± 57.34 |  |  |  |  |  | 
28 (≈ 73.1 mM) | 22 (≈ 57.5 mM) | Practically insoluble | OCCCCN1CCC(=C2c3ccc(Cl)cc3CCc3cccnc32)CC1 [Hydroxybutyl desloratadine, reference compound] | 1.45 ± 0.47 | 57.77±13.69 | 1.31 ± 0.28 | 24.27±12.31 | 286.23 ± 55.29 |  |  |  |  |  | 

Compound | Solubility in Isopropanol [4] [mg/mL] | Solubility in Methanol [4] [mg/mL] | Solubility in Water [4] | Smooth muscle tone After administration (histamine) [g] | Antispasmodic percentage [1] [%] | Smooth muscle tone After administration [2] [g] | Antispasmodic percentage [2] [%] | Post-administration latency period [3] [s] | Smooth muscle tone After addition of histamine (histamine) [g] | Smooth muscle tone Before administration (histamine) [g] | Smooth muscle tone Before administration [2] [g] | Antispasmodic percentage ([2]; 5 min) [%] | Pre-administration latency period [3] [s] | also measured
O=C1Cc2ccccc2C(=C2CCN(CCOP(=O)(O)O)CC2)c2ccsc21 [Compound III-2] |  |  | 20 mg/mL (≈ 47.7 mM) | 1.18 ± 0.21 | 65.39±17.28 | 1.21 ± 0.24 |  | 377.22 ± 50.87 | 3.41 ± 0.89 | 1.75 ± 0.18 | 1.70 ± 0.21 | 28.82±16.05 | 99.48 ± 50.88 | 
